Blank lines part the entries; values can stand above or below the compound they belong to.
Legend:
Penicillium decumbens [1] = assay: Inhibition of Penicillium decumbens alpha-L-rhamnosidase at 750 uM relative to control
Penicillium decumbens [2] = assay: Inhibition of Penicillium decumbens alpha-L-rhamnosidase at 1000 uM relative to control
[3] = Inhibition of almond beta-glucosidase using p-nitrophenyl-glycoside as substrate by spectrophotometric method; design: species or system Prunus dulcis
[4] = Inhibition of yeast alpha-glucosidase using p-nitrophenyl-glycoside as substrate by spectrophotometric method; design: species or system Saccharomyces cerevisiae
Coffea = assay: Inhibition of coffee bean alpha-galactosidase at 1000 uM using p-nitrophenyl-glycoside as substrate by spectrophotometric method
[5] = Inhibition of bovine liver beta-glucosidase using p-nitrophenyl-glycoside as substrate by spectrophotometric method; design: species or system Bos taurus
Escherichia coli = assay: Inhibition of Escherichia coli beta-galactosidase at 1000 uM using p-nitrophenyl-glycoside as substrate by spectrophotometric method
Homo sapiens = organism: Homo sapiens; assay: Inhibition of human lysosomal beta-glucosidase at 1000 uM using 4-methylumbelliferyl-beta-D-glucopyranoside as substrate preincubated for 45 mins followed by substrate addition measured after 30 mins by fluorescence spectrophotometric method
Penicillium decumbens [6] = assay: Inhibition of Penicillium decumbens alpha-L-rhamnosidase at 1000 uM using p-nitrophenyl-glycoside as substrate by spectrophotometric method
[7] = Inhibition of Aspergillus niger amyloglucosidase assessed as D-glucose level using maltose as substrate measured after 10 to 30 mins
[8] = molecular target: T1, Alpha-mannosidase (Canavalia ensiformis) (UniProt C0HJB3); assay: Inhibition of Jack bean alpha-mannosidase at 1000 uM preincubated for 45 mins followed by addition of p-nitrophenyl-glycoside as substrate measured after 30 mins by fluorescence spectrophometry
T1 sequence (whole entry): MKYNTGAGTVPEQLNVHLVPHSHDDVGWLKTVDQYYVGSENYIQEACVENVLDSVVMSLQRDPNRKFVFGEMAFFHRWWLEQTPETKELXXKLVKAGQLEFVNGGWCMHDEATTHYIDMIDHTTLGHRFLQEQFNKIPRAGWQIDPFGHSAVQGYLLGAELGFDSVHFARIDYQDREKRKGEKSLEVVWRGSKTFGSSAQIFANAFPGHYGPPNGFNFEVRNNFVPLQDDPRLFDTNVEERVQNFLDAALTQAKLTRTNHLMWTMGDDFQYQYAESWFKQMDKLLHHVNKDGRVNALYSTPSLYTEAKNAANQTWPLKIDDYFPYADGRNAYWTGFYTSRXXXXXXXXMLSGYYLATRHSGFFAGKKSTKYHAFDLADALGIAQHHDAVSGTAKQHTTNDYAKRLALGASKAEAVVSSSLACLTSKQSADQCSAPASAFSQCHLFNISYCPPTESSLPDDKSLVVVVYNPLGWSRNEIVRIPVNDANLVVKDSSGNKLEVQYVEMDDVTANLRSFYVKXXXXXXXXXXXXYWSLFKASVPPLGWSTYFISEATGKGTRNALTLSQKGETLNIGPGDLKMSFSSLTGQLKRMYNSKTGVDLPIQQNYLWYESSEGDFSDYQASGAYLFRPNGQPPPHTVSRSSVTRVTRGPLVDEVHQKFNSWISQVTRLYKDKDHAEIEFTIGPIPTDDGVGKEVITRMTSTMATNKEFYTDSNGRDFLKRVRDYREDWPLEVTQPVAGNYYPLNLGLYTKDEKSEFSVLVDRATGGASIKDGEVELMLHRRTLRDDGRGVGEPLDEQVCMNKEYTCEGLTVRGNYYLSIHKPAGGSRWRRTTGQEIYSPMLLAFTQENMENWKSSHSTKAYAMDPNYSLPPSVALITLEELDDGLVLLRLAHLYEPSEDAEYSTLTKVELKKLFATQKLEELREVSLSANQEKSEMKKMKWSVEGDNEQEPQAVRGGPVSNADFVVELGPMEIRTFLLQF

[9] = Inhibition of Helix pomatia beta-mannosidase using p-nitrophenyl-glycoside as substrate by spectrophotometric method

inhibition (Penicillium decumbens [1]): < 50%
SMILES: C[C@@H]1NC[C@H](O)[C@H](O)[C@H]1O

inhibition (Penicillium decumbens [2]): < 50%
SMILES: OC[C@@H]1NC[C@H](O)[C@@H]1O

IC50 [3]: 10 µM
IC50 [4]: 7.8 µM
inhibition (Coffea): < 50%
IC50 [5]: 9.7 µM
inhibition (Escherichia coli): < 50%
inhibition (Homo sapiens): < 50%
inhibition (Penicillium decumbens [6]): < 50%
IC50 [7]: 116 µM
inhibition [8]: < 50%
IC50 [9]: 721 µM
SMILES: OC[C@H]1N[C@H](CO)[C@@H](O)[C@@H]1O

Reference: ChEMBL document CHEMBL3868599, “Strategy for designing selective α-l-rhamnosidase inhibitors: Synthesis and biological evaluation of l-DMDP cyclic isothioureas” (Bioorg Med Chem, 2017)
